The target of the assay is T1, c-kit mutant D816V (Homo sapiens, UniProt P10721, D816V/DEL694-753).
T1 construct: residues 551-934, kinase insertion domain residues 694-753 deleted; 6x-histidine (N); made in house; host or cells: E. coli Arctic Express (DE3) RIL (Stratagene)
T1 sequence (P10721 with tags, fused parts or gaps DEL694-753/D816V): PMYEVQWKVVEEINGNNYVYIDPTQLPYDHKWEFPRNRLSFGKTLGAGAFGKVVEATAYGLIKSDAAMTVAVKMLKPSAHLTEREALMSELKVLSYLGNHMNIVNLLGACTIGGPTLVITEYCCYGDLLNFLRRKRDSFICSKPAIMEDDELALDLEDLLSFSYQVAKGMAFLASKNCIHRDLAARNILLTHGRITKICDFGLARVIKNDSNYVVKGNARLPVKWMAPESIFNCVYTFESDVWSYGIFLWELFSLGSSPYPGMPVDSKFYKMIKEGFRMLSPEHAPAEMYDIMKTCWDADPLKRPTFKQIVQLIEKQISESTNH
Description: c-Kit mutant D816V biochemical assay, AlphaScreen. To be noted: c-kit D816V biochemical inhibitory activity; read-out: Biochemical activity (IC50 μM) Kit D816V. An outline of the steps: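 Purified His-tagged c-Kit D816V (E. coli-expressed) assayed in 25 mM HEPES pH 7.2 with Mg/Mn, 5% DMSO and 10 μM ATP, 30 min at room temperature, 8-point 1:3 dilutions. Phosphorylation detected by AlphaScreen with streptavidin donor and PY20 acceptor beads; IC50 from signal versus concentration.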
Background: Alpha assays give light when donor and acceptor beads are brought close together.
`Cn1cc(-c2cc3c(N4CCC(NS(=O)(=O)c5ccc(F)cc5)CC4)ncnc3[nH]2)cn1` [P-0490, 4-fluoro-N-[1-[6-(1-methylpyrazol-4-yl)-7H-pyrrolo[2,3-d]pyrimidin-4-yl]-4-piperidyl]benzenesulfonamide]: the IC50 lay within 1 to 10 µM. In the case of `Cn1cc(-c2cc3c(N4CCC(NS(=O)(=O)c5ccccc5OC(F)(F)F)CC4)ncnc3[nH]2)cn1` [P-0493, N-[1-[6-(1-methylpyrazol-4-yl)-7H-pyrrolo[2,3-d]pyrimidin-4-yl]-4-piperidyl]-2-(trifluoromethoxy)benzenesulfonamide], the IC50 lay in the range of 10 to 200 µM. With `COc1ccc(S(=O)(=O)NC2CCN(c3ncnc4[nH]c(-c5cnn(C)c5)cc34)CC2)cc1` [P-0496, 4-methoxy-N-[1-[6-(1-methylpyrazol-4-yl)-7H-pyrrolo[2,3-d]pyrimidin-4-yl]-4-piperidyl]benzenesulfonamide] the figure was 0.0001 to 1 µM; with `Cn1cc(-c2cc3c(N4CCC(NS(=O)(=O)c5ccc(OC(F)(F)F)cc5)CC4)ncnc3[nH]2)cn1` [P-0497, N-[1-[6-(1-methylpyrazol-4-yl)-7H-pyrrolo[2,3-d]pyrimidin-4-yl]-4-piperidyl]-4-(trifluoromethoxy)benzenesulfonamide], 1 to 10 µM; with `O=S(=O)(NC1CCN(c2ncnc3[nH]c(-c4ccc(Cl)cc4)cc23)CC1)c1cccc(OC(F)(F)F)c1` [P-0499, N-[1-[6-(4-chlorophenyl)-7H-pyrrolo[2,3-d]pyrimidin-4-yl]-4-piperidyl]-3-(trifluoromethoxy)benzenesulfonamide], 1 to 10 µM.

On to `Cn1cc(-c2cc3c(N4CCC(NS(=O)(=O)c5cccc(OC(F)(F)F)c5)CC4)ncnc3[nH]2)cn1` [P-0500, N-[1-[6-(1-methylpyrazol-4-yl)-7H-pyrrolo[2,3-d]pyrimidin-4-yl]-4-piperidyl]-3-(trifluoromethoxy)benzenesulfonamide], for which the IC50 was in the range of 10 to 200 µM. As for `O=C(NCc1ccc(F)cc1)NC1CCN(c2ncnc3[nH]ccc23)CC1` [P-0509, 1-[(4-fluorophenyl)methyl]-3-[1-(7H-pyrrolo[2,3-d]pyrimidin-4-yl)-4-piperidyl]urea], the figure is 10 to 200 µM. As for `O=C(NCCc1ccc(F)cc1)NC1CCN(c2ncnc3[nH]ccc23)CC1` [P-0511, 1-[2-(4-fluorophenyl)ethyl]-3-[1-(7H-pyrrolo[2,3-d]pyrimidin-4-yl)-4-piperidyl]urea], the figure is 10 to 200 µM; as for `O=C(Nc1ccc(F)c(Cl)c1)NC1CCN(c2ncnc3[nH]ccc23)CC1` [P-0512, 1-(3-chloro-4-fluoro-phenyl)-3-[1-(7H-pyrrolo[2,3-d]pyrimidin-4-yl)-4-piperidyl]urea], 10 to 200 µM.

With `O=C(Nc1ccc(OC(F)(F)F)cc1)NC1CCN(c2ncnc3[nH]ccc23)CC1` [P-0513, 1-[1-(7H-pyrrolo[2,3-d]pyrimidin-4-yl)-4-piperidyl]-3-[4-(trifluoromethoxy)phenyl]urea], the IC50 lay within 10 to 200 µM. On to `O=C(Nc1ccc(C(F)(F)F)cc1)NC1CCN(c2ncnc3[nH]ccc23)CC1` [P-0514, 1-[1-(7H-pyrrolo[2,3-d]pyrimidin-4-yl)-4-piperidyl]-3-[4-(trifluoromethyl)phenyl]urea], for which the half-maximal inhibitory concentration (IC50) is 10 to 200 µM.

On to `O=C(Nc1ccc(F)cc1)N1CC2CCC1CN2c1ncnc2cc(-c3ccc(F)cc3)sc12` (centres unmarked) [P-0546, N-(4-fluorophenyl)-5-[6-(4-fluorophenyl)thieno[3,2-d]pyrimidin-4-yl]-2,5-diazabicyclo[2.2.2]octane-2-carboxamide], for which the IC50 was 1 to 10 µM. With `COc1cccc(CNC(=O)N2CC3CCC2CN3c2ncnc3cc(-c4ccc(F)cc4)sc23)c1` (centres unmarked) [P-0547, 5-[6-(4-fluorophenyl)thieno[3,2-d]pyrimidin-4-yl]-N-[(3-methoxyphenyl)methyl]-2,5-diazabicyclo[2.2.2]octane-2-carboxamide] the figure was 0.0001 to 1 µM.

For the molecule `COc1cccc([C@H](C)NC(=O)N2CC3CCC(C2)N3c2ncnc3cc(-c4ccc(F)cc4)sc23)c1` [P-0550, 8-[6-(4-fluorophenyl)thieno[3,2-d]pyrimidin-4-yl]-N-[(1S)-1-(3-methoxyphenyl)ethyl]-3,8-diazabicyclo[3.2.1]octane-3-carboxamide], the IC50 was in the range of 1 to 10 µM. With `COc1cccc(CNC(=O)N2CC3CCC(C2)N3c2ncnc3cc(-c4ccc(F)cc4)sc23)c1` [P-0551, 8-[6-(4-fluorophenyl)thieno[3,2-d]pyrimidin-4-yl]-N-[(3-methoxyphenyl)methyl]-3,8-diazabicyclo[3.2.1]octane-3-carboxamide], the IC50 was 1 to 10 µM. As for `C[C@H](NC(=O)N1CCN(c2ncnc3cc(-c4ccc(F)cc4)sc23)CC1(C)C)c1cccc(F)c1` [P-0578, N-[(1S)-1-(3-fluorophenyl)ethyl]-4-[6-(4-fluorophenyl)thieno[3,2-d]pyrimidin-4-yl]-2,2-dimethyl-piperazine-1-carboxamide], the figure is 1 to 10 µM; as for `C[C@H](NC(=O)N1CCN(c2ncnc3cc(Br)sc23)CC1)c1ccc(F)cc1` [P-0597, 4-(6-bromothieno[3,2-d]pyrimidin-4-yl)-N-[(1S)-1-(4-fluorophenyl)ethyl]piperazine-1-carboxamide], 1 to 10 µM; as for `C[C@H](NC(=O)N1CCN(c2ncnc3cc(-c4ccc(F)cc4)sc23)C[C@H]1C)c1ccc(F)cc1` [P-0601, (2R)-N-[(1S)-1-(4-fluorophenyl)ethyl]-4-[6-(4-fluorophenyl)thieno[3,2-d]pyrimidin-4-yl]-2-methyl-piperazine-1-carboxamide], 1 to 10 µM.

As to `O=C(NCc1ccccc1)N1CCN(c2ncnc3cc(Br)sc23)CC1` [P-0629, N-benzyl-4-(6-bromothieno[3,2-d]pyrimidin-4-yl)piperazine-1-carboxamide], the IC50 was 10 to 200 µM. As for `CCS(=O)(=O)Nc1ccc(-c2ncnc3cc(-c4ccc(F)cc4)sc23)cc1` [P-0630, N-[4-[6-(4-fluorophenyl)thieno[3,2-d]pyrimidin-4-yl]phenyl]ethanesulfonamide], the figure is 1 to 10 µM; as for `CC(=O)Nc1ccc(-c2ncnc3cc(-c4ccc(F)cc4)sc23)cc1` [P-0632, N-[4-[6-(4-fluorophenyl)thieno[3,2-d]pyrimidin-4-yl]phenyl]acetamide], 10 to 200 µM. As to `Nc1ccc(-c2ncnc3cc(-c4ccc(F)cc4)sc23)cc1` [P-0634, 4-[6-(4-fluorophenyl)thieno[3,2-d]pyrimidin-4-yl]aniline], the half-maximal inhibitory concentration (IC50) lay in the range of 1 to 10 µM. As for `O=S(=O)(NCc1ccccc1)c1ccc(-c2ncnc3cc(-c4ccc(F)cc4)sc23)cc1` [P-0635, N-benzyl-4-[6-(4-fluorophenyl)thieno[3,2-d]pyrimidin-4-yl]benzenesulfonamide], the figure is 0.0001 to 1 µM; as for `Cc1ccc(S(=O)(=O)Nc2ccc(-c3ncnc4cc(-c5ccc(F)cc5)sc34)cc2)cc1` [P-0636, N-[4-[6-(4-fluorophenyl)thieno[3,2-d]pyrimidin-4-yl]phenyl]-4-methyl-benzenesulfonamide], 0.0001 to 1 µM; as for `O=C(Nc1ccc(F)cc1)N1CCN(c2ncnc3ccsc23)CC1` [P-0640, N-(4-fluorophenyl)-4-thieno[3,2-d]pyrimidin-4-yl-piperazine-1-carboxamide], 0.0001 to 1 µM. With `CCCc1ccc(S(=O)(=O)NC2CC=C(c3ncnc4[nH]c(C)cc34)CC2)cc1` (centres unmarked) [P-0651, N-[4-(6-methyl-7H-pyrrolo[2,3-d]pyrimidin-4-yl)cyclohex-3-en-1-yl]-4-propyl-benzenesulfonamide] the figure was 0.0001 to 1 µM.

One may read the IC50 as the concentration that gives 50% inhibition.

For the origin of these results see US10227357B2, “Compounds and methods for kinase modulation, and indications therefor” (Plexxikon Inc., priority 2012, dated 2019).
